These results are taken from ChEMBL document CHEMBL5331051, “Cationic, amphipathic small molecules based on a triazine-piperazine-triazine scaffold as a new class of antimicrobial agents” (Eur J Med Chem, 2022).

Data set [1] concerns Cell membrane. Nature of the data set: Induction of outer membrane permeabilization in Escherichia coli KCTC 1682 assessed as increase in fluorescence intensity at 2 to 8 ug/ml by NPN staining based analysis. The conditions noted are these: dose 2-8 µg/ml.
The test system of a further data set is Erythrocyte. Put plainly: Hemolytic activity in sheep RBC assessed as minimal hemolytic concentration causing 10% hemolysis incubated for 1 hr by ELISA. It counts as toxicity, cell-based, Ovis aries. On the technique in general: In an ELISA, binding on a coated surface is turned into a signal by an enzyme label.
In the next data set the test system is Enterococcus faecium. Put plainly: Antibacterial activity against vancomycin-resistant Enterococcus faecium ATCC 51559 strain assessed as bacterial growth inhibition measured at 18 to 24 hrs by microdilution assay. It counts as functional. The conditions noted are these: time 18-24 hrs. For orientation: In broth dilution the organism is exposed to a series of concentrations in liquid medium.

The test system of data set [2] is Escherichia coli. Nature of the data set: Antibacterial activity against Escherichia coli KCTC 1682 strain assessed as bacterial growth inhibition measured after 6 hrs in presence of trypsin by radial diffusion assay. It counts as functional, organism-based.
The subject of data set [3] is Escherichia coli. Put plainly: Antibacterial activity against Escherichia coli KCTC 1682 strain assessed as bacterial growth inhibition measured after 6 hrs in presence of chymotrypsin by radial diffusion assay. It counts as functional, organism-based.
The test system of data set [4] is Escherichia coli. Put plainly: Antibacterial activity against Escherichia coli KCTC 1682 strain assessed as bacterial growth inhibition measured after 6 hrs in presence of pepsin by radial diffusion assay. It counts as functional, organism-based.
Data set [5] relates to Escherichia coli. Nature of the data set: Antibacterial activity against Escherichia coli KCTC 1682 strain assessed as bacterial growth inhibition measured after 6 hrs in presence of proteinase K by radial diffusion assay. It counts as functional, organism-based.
The subject of data set [6] is Cell membrane. Nature of the data set: Induction of cell membrane depolarization in Staphylococcus aureus assessed as increase in fluorescence intensity at 2 times MIC by DiSC3(5) dye based fluorescence assay.
Data set [7] relates to Cell membrane. Put plainly: Induction of cell membrane depolarization in Staphylococcus aureus assessed as fluorescence intensity at 2 to 16 times MIC by DiSC3(5) dye based fluorescence assay. It counts as subcellular.
In data set [8] the test system is Cell membrane. Nature of the data set: Induction of cell membrane depolarization in Staphylococcus aureus assessed as increase in fluorescence intensity at 2 times MIC by SYTOX green staining based analysis.
Data set [9] deals with Cell membrane. Nature of the data set: Induction of inner membrane permeabilization in Escherichia coli ML-35 assessed as increase in […] at 2 times MIC by ONPG staining based analysis.
For data set [10], the system named is Cell membrane. Put plainly: Induction of cell membrane damage in Escherichia coli KCTC 1682 assessed as increase in fluorescent intensity at 2 times MIC incubated for 30 mins by PI staining based flow cytometry assay (reference value: 9.79 %). It counts as subcellular.
For data set [11], the system named is Staphylococcus aureus. Put plainly: Antibacterial activity against methicillin-resistant Staphylococcus aureus CCARM 3089 strain assessed as bacterial growth inhibition measured at 18 to 24 hrs by microdilution assay. It counts as functional. Particulars: time 18-24 hrs.
The test system of data set [12] is Staphylococcus aureus. Put plainly: Antibacterial activity against methicillin-resistant Staphylococcus aureus CCARM 3090 strain assessed as bacterial growth inhibition measured at 18 to 24 hrs by microdilution assay. It counts as functional. Particulars: time 18-24 hrs.
Data set [13] relates to Staphylococcus aureus. Put plainly: Antibacterial activity against methicillin-resistant Staphylococcus aureus CCARM 3095 strain assessed as bacterial growth inhibition measured at 18 to 24 hrs by microdilution assay. The conditions noted are these: time 18-24 hrs. It counts as functional.
In data set [14] the test system is Pseudomonas aeruginosa. Put plainly: Antibacterial activity against multidrug-resistant Pseudomonas aeruginosa CCARM 2095 strain assessed as bacterial growth inhibition measured at 18 to 24 hrs by microdilution assay. It counts as functional. The conditions noted are these: time 18-24 hrs.
For data set [15], the system named is Pseudomonas aeruginosa. Nature of the data set: Antibacterial activity against multidrug-resistant Pseudomonas aeruginosa CCARM 2109 strain assessed as bacterial growth inhibition measured at 18 to 24 hrs by microdilution assay. It counts as functional. Particulars: time 18-24 hrs.
The subject of data set [16] is Pseudomonas aeruginosa. Put plainly: Antibacterial activity against multidrug-resistant Pseudomonas aeruginosa CCARM 2095 strain assessed as bacterial growth inhibition by checkerboard assay. It counts as functional.
Data set [17] has as its system Pseudomonas aeruginosa. Nature of the data set: Synergistic antibacterial activity against multidrug-resistant Pseudomonas aeruginosa CCARM 2095 strain assessed as bacterial growth inhibition by checkerboard assay. It counts as functional.
The test system of data set [18] is Pseudomonas aeruginosa. Nature of the data set: Additive antibacterial activity against multidrug-resistant Pseudomonas aeruginosa CCARM 2095 strain assessed as bacterial growth inhibition by checkerboard assay. It counts as functional.
Data set [19] relates to Pseudomonas aeruginosa. Put plainly: Bactericidal activity against multidrug-resistant Pseudomonas aeruginosa CCARM 2095 measured after 24 hrs by time-kill kinetics assay. It counts as functional, organism-based.
Data set [20] has as its system Pseudomonas aeruginosa. Put plainly: Bacteriostatic activity against multidrug-resistant Pseudomonas aeruginosa CCARM 2095 measured after 24 hrs by time-kill kinetics assay. It counts as functional, organism-based.

In brackets after ≈: the same amount, converted by molar mass. Activity calls are given as the source filed them. Bounds are passed on as bounds.

One may read the MIC as the smallest concentration in the dilution series that meets the test's criterion for growth inhibition. In the case of `CC[C@H](C)[C@H](NC(=O)CN)C(=O)NCC(=O)N[C@@H](C)C(=O)N[C@H](C(=O)N[C@@H](CC(C)C)C(=O)N[C@@H](CCCCN)C(=O)N[C@H](C(=O)N[C@@H](CC(C)C)C(=O)N[C@H](C(=O)N[C@H](C(=O)NCC(=O)N[C@@H](CC(C)C)C(=O)N1CCC[C@H]1C(=O)N[C@@H](C)C(=O)N[C@@H](CC(C)C)C(=O)N[C@H](C(=O)N[C@@H](CO)C(=O)N[C@@H](Cc1c[nH]c2ccccc12)C(=O)N[C@H](C(=O)N[C@@H](CCCCN)C(=O)N[C@@H](CCCNC(=N)N)C(=O)N[C@@H](CCCCN)C(=O)N[C@@H](CCCNC(=N)N)C(=O)N[C@@H](CCC(N)=O)C(=O)N[C@@H](CCC(N)=O)C(N)=O)[C@@H](C)CC)[C@@H](C)CC)[C@@H](C)O)[C@@H](C)O)C(C)C)C(C)C` [MELITTIN], the outcome with Cell membrane [1], in the data set on Cell membrane [6], with Cell membrane [8] and in the data set with Cell membrane [9] was Active. In addition, the MHC with Erythrocyte was found to be 3.2 µM. The MIC in the data set on Enterococcus faecium was determined as 0.0056 mM (≈ 15.9 µg/mL). In addition, the outcome in the data set on Escherichia coli [2], in the data set with Escherichia coli [3], in the data set on Escherichia coli [4], in the data set on Escherichia coli [5] and in the data set with Cell membrane [7] was inactive. The Flu intensity in the data set with Cell membrane [10] was determined as 64.2%.

Consider `O=C(N[C@H](CO)[C@H](O)c1ccc([N+](=O)[O-])cc1)C(Cl)Cl` [CHLORAMPHENICOL], for which the MIC in the data set with Staphylococcus aureus [11] is 3.16 mM (≈ 1020 µg/mL); in the data set with Staphylococcus aureus [12] it was over 6.33 mM; with Staphylococcus aureus [13], over 6.33 mM; in the data set with Pseudomonas aeruginosa [14] it was 6.33 mM (≈ 2040 µg/mL); in the data set with Pseudomonas aeruginosa [15], over 6.33 mM; in the data set with Enterococcus faecium, 1.58 mM (≈ 511 µg/mL). For the same compound, the MIC in the data set with Pseudomonas aeruginosa [16], in the data set with Pseudomonas aeruginosa [17] and in the data set with Pseudomonas aeruginosa [18] was 1020 µg/mL throughout. Besides, the outcome in the data set on Pseudomonas aeruginosa [19] and in the data set on Pseudomonas aeruginosa [20] was inactive.
